# Assay results published in US20210330756A1, “Acetylation of Miro1” (University of South Carolina, priority 2020, published 2021).
# Test system: axonal mitochondrial transport in DRG neurons
# Experiment: FRAP of Mito-GFP in distal axons of DRG neurons
# Format: cell-based, rat
# Procedure: MAG or Aggrecan exposures were performed as bath application or on coated substrates. For bath application, dissociated DRGs were cultured for 48 h and treated with 25 μg/ml of MAG-Fc (R&D Systems; 538-MG), 25 μg/ml Fc control (R&D Systems; 110-HG), or 10 μg/ml of Aggrecan (Sigma-Aldrich; A1960) for 4 h. Cultures were pretreated with either Ca^2+ chelator BAPTA-AM (3 μM; Sigma-Aldrich; A1076), ROCK inhibitor Y27632 (10 μM; Sigma-Aldrich; SCM075), HDAC6 inhibitor TubA (10 μM; R&D Systems; 6270), Thapsigargin (1 μM; Sigma-Aldrich; T9033), Rho Activator II (1 μg/ml; Cytoskeleton; CNO3), or equivalent volume DMSO 30 min before MAG-Fc, Aggrecan, or controls. For substrate-bound experiments, adult DRGs were cultured on glass bottom dishes (Greiner) that were coated with 25 μg/ml Aggrecan in addition to the laminin/poly-D-lysine substrate.
# Mito-KR- and Mito-GFP-expressing DRG neurons were used for FRAP analyses at 48-72 h after transfection. To evaluate mitochondrial motility in Mito-KR-expressing neurons, Mito-KR signals were photobleached using continual exposure to an argon laser set at 594 nm for 30 s (100% laser power) The bleached ROI was then monitored for recovery using an argon laser set at 580 nm every 10 s over 16 min (13% laser power). For FRAP analyses with Mito-GFP, GFP signals were photobleached in a 50 μm ROI using an argon laser set at 488 nm every 10 s for 16 min (70% laser power). The same excitation was used for post-bleach imaging to assess recovery every 10 s for 16 min. For axon shaft FRAP experiments in Mito-GFP-expressing neurons, ROIs of ˜50 μm in length (without branches) were imaged >100 μm proximal to the growth cone. Prebleach, bleach, and post-bleach sequences were the same as for Mito-GFP above. In all cases, neurons were imaged over 40 s or more to acquire baseline Mito-KR or Mito-GFP signals before photobleaching using an argon laser (580 nm at 13% power for Mito-KR and 488 nm at 31% power for Mito-GFP).
# Vesicle trafficking was quantified using differential ImageJ Difference Tracker Plug-in (Andrews et al., 2010). 50-80-μm long unbranched axon segments at approximately the mid-region between growth cone and cell body were analyzed. Kymographs were generated using ImageJ Kymograph Plug-in. For analyses of axon retraction in the CALI experiment, the distance from the distal tip of the growth cone in the pre-CALI image sequence was used as the baseline (t=1 min). The distance between the growth tip at end of the post-CALI sequence and the pre-CALI baseline was measured using LAS-X software. Movement of ≥0.5 μm toward the axon shaft was counted as retracted. Fluorescence emission of the Mito-KR post-CALI was analyzed using ImageJ. For normalizing intensities across FRAP image sets, fluorescence intensity at each time point was scaled using the LAS-X FRAP module so that the residual fluorescence signal at t=0 min (post-bleach) was set at 0 and the prebleach intensity was set at 100% for each bleached ROI. For axon shaft FRAP analyses, each 50-μm bleached ROI was divided into […], and the fluorescence intensity recovery was measured as described above. EMs at 1,900× and 4,800× magnification across the crosssectional surface of each sciatic nerve were used for in vivo analyses of mitochondrial content. A minimum of 75 unmyelinated axons was analyzed for each nerve. All unmyelinated axons from each analyzed image were included for quantitative studies. The total number of mitochondria was determined in each unmyelinated axon in the field and was divided by the total number of unmyelinated axons for all subjects. […] was determined by changes in JC-1 fluorescence. JC-1 exists either as a green fluorescent monomer at depolarized membrane potentials or as an orange-red fluorescent aggregate at hyperpolarized membrane potentials. […]
SMILES,mitochondrial transport in DRG axons (Mito-GFP FRAP) (1 μM thapsigargin),"Mito-GFP recovery for thapsigargin-treated cultures, Myc-Miro1K105Q-expressing neurons (1 μM thapsigargin + 10 μM TubA)","Mito-GFP recovery for thapsigargin-treated cultures, Myc-Miro1K629Q-expressing neurons (1 μM thapsigargin + 10 μM TubA)","Mito-GFP recovery in DRGs transfected with WT, K40Q or K40A α-tubulin (10 μM TubA vs DMSO, 960 s after bleach)","mitochondrial transport with combined 10 μM TubA, 3 μM BAPTA-AM and ROCK inhibitor vs each alone (MAG-Fc, Mito-GFP FRAP)",effect on Rho activator-dependent decrease in mitochondrial transport (Rho-Activator + 10 μM TubA),"effect on aggrecan-dependent decrease in Mito-GFP recovery (aggrecan 10 μg/ml, TubA 10 μM or Y27632 10 μM)","effect on MAG-Fc-dependent decrease in Mito-GFP recovery / mitochondrial transport (pretreatment: TubA 10 μM, Y27632 10 μM or BAPTA-AM 3 μM, 960 s after bleach)",effect on thapsigargin-dependent decrease in mitochondrial transport (thapsigargin + 10 μM TubA)
C/C=C(/C)C(=O)O[C@H]1C(C)=C2[C@H]([C@@H]1OC(=O)CCCCCCC)[C@@](C)(OC(C)=O)C[C@H](OC(=O)CCC)[C@@]1(O)[C@H]2OC(=O)[C@@]1(C)O [thapsigargin],similarly decreased mitochondrial transport,,,,,,,,
"CN1CCc2c(c3ccccc3n2Cc2ccc(C(=O)NO)cc2)C1 [TubA, tubastatin]",,only a modest response to TubA treatment,significantly increased by TubA treatment,significantly increases Mito-GFP recovery in all three conditions,did not increase mitochondrial transport above the results seen,prevented by treatment with TubA,prevented by treatment with TubA,prevented by TubA pretreatment,prevented by inhibition of HDAC6
